# Data reported in paper PMC6199744, “Development of Chemical Proteomics for the Folateome and Analysis of the Kinetoplastid Folateome” (ACS Infectious Diseases, 2018).
# Where two headings read alike, the source gives them in different places.
# Test system: T. brucei lysate proteins
# Assay type: binding, Trypanosoma brucei
# Settings: vehicle control = 1
smiles,measurement,setting,value
"Nc1nc2c(c(=O)[nH]1)N(C=O)C(CNc1ccc(C(=O)N[C@@H](CCC(=O)O)C(=O)O)cc1)CN2 (stereo partly drawn) [LEU, leucovorin]",fold change,"protein TB427.06.3630 SPHINGOSINE 1-PHOSPHATE LYASE, PUTATIVE",0.94
same,fold change,"protein TB427.06.3670 PAR[…] COMPONENT, PUTATIVE",0.77
same,fold change vs vehicle control,"protein TB427.06.4480 VALYL-TRNA SYNTHETASE, PUTATIVE",1.07
same,fold change,"protein TB427.06.4740 IMPORTIN-ALPHA RE-EXPORTER PROTEIN, PUTATIVE",1.22
same,fold change,"protein TB427.06.700 ALANYL-TRNA SYNTHETASE, PUTATIVE",0.94
same,fold change vs vehicle control,"protein TB427.07.1300 PROTEIN DISULFIDE ISOMERASE, PUTATIVE",1.76
same,fold change,"protein TB427.07.1420 HY[…], CONSERVED",0.96
same,fold change,"protein TB427.07.2340 40S RIBOSOMAL PROTEIN S15, PUTATIVE",0.96
same,fold change vs vehicle control,"protein TB427.07.3160 DYNEIN HEAVY CHAIN, CYTOSOLIC, PUTATIVE",0.86
same,fold change,"protein TB427.07.3530 HY[…], CONSERVED",0.87
same,fold change,"protein TB427.07.4180 FATTY ACID ELONGASE, PUTATIVE",0.95
same,fold change,"protein TB427.07.4970 GLUTAMINE SYNTHETASE, PUTATIVE",0.91
same,fold change vs vehicle control,"protein TB427.07.7500 THYMINE-7-HYDROXYLASE, PUTATIVE",0.97
same,fold change,"protein TB427.08.2060 HY[…], CONSERVED",0.77
same,fold change,"protein TB427.08.3490 HY[…], CONSERVED",1
same,fold change,"protein TB427.08.3520 HY[…], CONSERVED",0.94
same,fold change,"protein TB427.08.3870 HY[…], CONSERVED",1.66
same,fold change,protein TB427.08.5460 FLAGELLAR CALCIUM-BINDING PROTEIN,1.21
same,fold change,"protein TB427.08.5760 HY[…], CONSERVED",0.93
same,fold change,"protein TB427.08.6390 LYSOPHOSPHOLIPASE, PUTATIVE",1.26
same,fold change,"protein TB427.08.650 CATION-TR[…], PUTATIVE",0.8
same,fold change,"protein TB427.10.10020 HY[…], CONSERVED",0.93
same,fold change,"protein TB427.10.10350 PROTEIN KINASE, PUTATIVE",0.95
same,fold change,"protein TB427.10.10360 MICROTUBULE-[…], PUTATIVE",0.82
same,fold change,"protein TB427.10.1060 T-COMPLEX PROTEIN 1, DELTA SUBUNIT, PUTATIVE",1.18
same,fold change vs vehicle control,"protein TB427.10.10610 PROTEIN TYROSINE PHOSPHATASE, PUTATIVE",2.13
same,fold change vs vehicle control,"protein TB427.10.1100 60S RIBOSOMAL PROTEIN L9, PUTATIVE",1.1
same,fold change vs vehicle control,protein TB427.10.11760 PUMILIO/PUF RNA BINDING PROTEIN 6,0.98
same,fold change,"protein TB427.10.12710 HEAT SHOCK PROTEIN, PUTATIVE",2.54
same,fold change vs vehicle control,"protein TB427.10.12820 HY[…], CONSERVED",1.13
same,fold change,protein TB427.10.14140 PYRUVATE KINASE 1,1.34
same,fold change vs vehicle control,"protein TB427.10.14470 INTR[…] PROTEIN IFT140, PUTATIVE",1.07
same,fold change,"protein TB427.10.14890 C-TERMINAL MOTOR KINESIN, PUTATIVE",1.36
same,fold change,protein TB427.10.2020 HEXOKINASE,1.68
same,fold change,"protein TB427.10.2290 CHAPERONE PROTEIN DNAJ, PUTATIVE",0.89
same,fold change,"protein TB427.10.2350 PYRUVATE DEH[…] E3 BINDING PROTEIN, PUTATIVE",0.89
same,fold change,"protein TB427.10.4610 […]-MANNOSE SYNTHASE, PUTATIVE",0.94
same,fold change vs vehicle control,"protein TB427.10.5810 HY[…], CONSERVED",2.19
same,fold change,"protein TB427.10.5840 T[…] 1-BETA, PUTATIVE",1.21
same,fold change,"protein TB427.10.5850 HY[…], CONSERVED",0.84
same,fold change,"protein TB427.10.6150 […]/BEIGE PROTEIN, PUTATIVE",0.73
same,fold change,"protein TB427.10.6310 MAJOR VAULT PROTEIN, PUTATIVE",0.82
same,fold change,"protein TB427.10.730 ATP SYNTHASE, PUTATIVE",0.81
same,fold change vs vehicle control,"protein TB427.10.7410 SUCCINYL-COA LIGASE GDP-FORMING] BETA-CHAIN, PUTATIVE",1.13
same,fold change vs vehicle control,"protein TB427.10.7630 HY[…], CONSERVED",1.07
same,fold change vs vehicle control,protein TB427.10.8230 PROTEIN DISULFIDE ISOMERASE,2.42
same,fold change,"protein TB427.10.8910 HY[…], CONSERVED",0.93
same,fold change vs vehicle control,"protein TB927.10.12700 PYRUVATE DEHYDROGENASE E1 ALPHA SUBUNIT, PUTATIVE",0.9
same,fold change,"protein TB927.10.12740 HY[…], CONSERVED,ZINC FINGER PROTEIN FAMILY MEMEBER, PUTATIVE",1.1
same,fold change,"protein TB927.10.12840 MIT[…] PROTEIN, PUTATIVE",0.92
same,fold change vs vehicle control,protein TB927.10.13290 ETHANOLAMINE PHOSPHOTRANSFERASE (EPT),0.95
same,fold change vs vehicle control,"protein TB927.10.14800 PROTEIN KINASE, PUTATIVE",1.13
same,fold change,protein TB927.10.1550 […]-ATP-ASE SUBUNIT 5,0.94
same,fold change vs vehicle control,protein TB927.10.2890 ENOLASE,1.93
same,fold change,protein TB927.10.2980 […]-ATPASE SUBUNIT 11,0.91
same,fold change vs vehicle control,protein TB927.10.4570 […] 2,1.87
same,fold change,"protein TB927.10.4690 DYNEIN LIGHT CHAIN, PUTATIVE",0.96
same,fold change,"protein TB927.10.5370 40S RIBOSOMAL PROTEIN S10, PUTATIVE",1
same,fold change vs vehicle control,"protein TB927.10.540 ATP-DEPENDENT DEAD/H RNA HELICASE, PUTATIVE",1.4
same,fold change,"protein TB927.10.5500 HY[…], CONSERVED",0.99
same,fold change vs vehicle control,"protein TB927.10.560 40S RIBOSOMAL PROTEINS S11, PUTATIVE",1.35
same,fold change,protein TB927.10.6050 CLATHRIN HEAVY CHAIN,0.82
same,fold change vs vehicle control,"protein TB927.10.8030 HY[…], CONSERVED",0.97
same,fold change vs vehicle control,"protein TB927.10.8160 HY[…], CONSERVED",0.94
same,fold change,"protein TB927.2.100 RETRO[…] SPOT (RHS) PROTEIN, PUTATIVE,RETRO[…] SPOT PROTEIN 1 (RHS1), PUTATIVE",1.21
same,fold change vs vehicle control,protein TB927.2.2440 […]-ATPASE SUBUNIT 6,1.21
same,fold change,"protein TB927.2.3800 MRNA […], PUTATIVE",0.96
same,fold change,"protein TB927.3.1240 PROTEIN PHOSPHATASE 2A, PUTATIVE",0.82
same,fold change,"protein TB927.3.1840 3-OXO-5-ALPHA-STEROID 4-DEHYDROGENASE, PUTATIVE",0.93
same,fold change vs vehicle control,protein TB927.3.2960 INOSINE-ADENOSINE-GUANOSINE-[…],2.01
same,fold change,"protein TB927.3.3190 SERINE/THREONINE-PROTEIN KINASE, PUTATIVE",0.93
same,fold change vs vehicle control,"protein TB927.3.3450 ADP-RI[…]-LIKE PROTEIN 3A, PUTATIVE",2.74
same,fold change vs vehicle control,"protein TB927.3.3490 HIGH MOBILITY GROUP PROTEIN, PUTATIVE",1.29
same,fold change vs vehicle control,"protein TB927.3.5120 HY[…], CONSERVED (Ankyrin repeats (3 copies), putative)",1.41
same,fold change vs vehicle control,"protein TB927.3.740 HY[…], CONSERVED",0.99
same,fold change vs vehicle control,"protein TB927.4.2740 HY[…], CONSERVED (p25-alpha, putative)",2.04
same,fold change,"protein TB927.4.3590 T[…] 1-BETA, PUTATIVE",1.21
same,fold change vs vehicle control,"protein TB927.4.3820 HY[…], CONSERVED",0.99
same,fold change,"protein TB927.5.1630 HY[…], CONSERVED",0.83
same,fold change vs vehicle control,"protein TB927.5.4440 DYNEIN LIGHT CHAIN, PUTATIVE",1.1
same,fold change,"protein TB927.6.2200 HY[…], CONSERVED",0.98
same,fold change vs vehicle control,"protein TB927.6.3740 HEAT SHOCK 70 KDA PROTEIN, MIT[…], PUTATIVE",1.13
same,fold change,protein TB927.6.4980 40S RIBOSOMAL PROTEIN S14,0.97
same,fold change vs vehicle control,"protein TB927.7.1750 60S RIBOSOMAL PROTEIN L7, PUTATIVE",1.49
same,fold change vs vehicle control,"protein TB927.7.4470 HY[…], CONSERVED",1.31
same,fold change vs vehicle control,"protein TB927.7.7430 ATP SYNTHASE ALPHA CHAIN, MIT[…]",1.2
same,fold change,protein TB927.8.4330 SMALL GTP-BINDING PROTEIN RAB11,0.97
same,fold change,protein TB927.8.4770 SMALL GTP-BINDING PROTEIN RAB18,0.93
same,fold change vs vehicle control,protein TB927.8.4810 PROHIBITIN 1,0.99
same,fold change,protein TB-292 MEMBRANE ASSOCIATED PROTEIN,0.88
